Results taken from the supplement of paper PMC10307832.

How the values were obtained:
Experiment in all cases: relative viability (nuclei count vs DMSO), 5 days (fraction); higher = more cells survive
Kobe2602 + Crizotinib = compound: C1=CC(=CC=C1NC(=S)NNC2=C(C=C(C=C2[N+](=O)[O-])C(F)(F)F)[N+](=O)[O-])F [Kobe2602] + C[C@@H](Oc1cc(-c2cnn(C3CCNCC3)c2)cnc1N)c1c(Cl)ccc(F)c1Cl [Crizotinib] (partner 1 µM)
Summary of the method: (§1)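 Five library-drug doses in √10 steps were combined with a fixed anchor-drug dose, or a single drug was given alone, by pin tool to lung cancer cell lines in 1536-well plates the day after seeding. Nuclei were stained and counted after 5 days. Relative viability is the nuclei count in treated wells over that in vehicle wells, taken as the median of duplicate plates.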

Zosuquidar + Navitoclax = compound: O[C@@H](COc1cccc2ncccc12)CN1CCN([C@@H]2c3ccccc3[C@@H]3[C@H](c4ccccc42)C3(F)F)CC1 [Zosuquidar] + CC1(C)CCC(c2ccc(Cl)cc2)=C(CN2CCN(c3ccc(C(=O)NS(=O)(=O)c4ccc(N[C@H](CCN5CCOCC5)CSc5ccccc5)c(S(=O)(=O)C(F)(F)F)c4)cc3)CC2)C1 [Navitoclax] (partner 0.5 µM)
Summary of the method: as §1

Kobe2602 + Vorinostat = compound: C1=CC(=CC=C1NC(=S)NNC2=C(C=C(C=C2[N+](=O)[O-])C(F)(F)F)[N+](=O)[O-])F [Kobe2602] + O=C(CCCCCCC(=O)Nc1ccccc1)NO [Vorinostat] (partner 1 µM)
Summary of the method: as §1

Zosuquidar + Olaparib = compound: O[C@@H](COc1cccc2ncccc12)CN1CCN([C@@H]2c3ccccc3[C@@H]3[C@H](c4ccccc42)C3(F)F)CC1 [Zosuquidar] + O=C(c1cc(Cc2n[nH]c(=O)c3ccccc23)ccc1F)N1CCN(C(=O)C2CC2)CC1 [Olaparib] (partner 8 µM)
Summary of the method: as §1

Cell Line	relative viability (Kobe2602 + Crizotinib; first compound 0.2 µM)	relative viability (Kobe2602 + Crizotinib; first compound 0.6325 µM)	relative viability (Kobe2602 + Crizotinib; first compound 2 µM)	relative viability (Kobe2602 + Crizotinib; first compound 6.325 µM)	relative viability (Kobe2602 + Crizotinib; first compound 20 µM)	relative viability (Zosuquidar + Navitoclax; first compound 0.01 µM)	relative viability (Zosuquidar + Navitoclax; first compound 0.03162 µM)	relative viability (Zosuquidar + Navitoclax; first compound 0.1 µM)	relative viability (Zosuquidar + Navitoclax; first compound 0.3162 µM)	relative viability (Zosuquidar + Navitoclax; first compound 1 µM)	relative viability (Kobe2602 + Vorinostat; first compound 0.2 µM)	relative viability (Kobe2602 + Vorinostat; first compound 0.6325 µM)	relative viability (Kobe2602 + Vorinostat; first compound 2 µM)	relative viability (Kobe2602 + Vorinostat; first compound 6.325 µM)	relative viability (Kobe2602 + Vorinostat; first compound 20 µM)	relative viability (Zosuquidar + Olaparib; first compound 0.01 µM)	relative viability (Zosuquidar + Olaparib; first compound 0.03162 µM)	relative viability (Zosuquidar + Olaparib; first compound 0.3162 µM)	relative viability (Zosuquidar + Olaparib; first compound 1 µM)	relative viability (Zosuquidar + Olaparib; first compound 0.1 µM)
EKVX	1.11	0.705	0.865	0.887	0.956	0.93	0.938	0.842	1.03	0.899	0.678	0.879	0.652	0.757	0.672	0.854	0.833	0.913	0.847	–
IA-LM	0.64	0.671	0.718	0.789	0.703	0.803	0.83	1.02	0.848	0.753	0.894	0.95	0.819	0.953	0.988	0.817	0.805	0.879	0.885	0.82
NCI-H1734	0.71	0.652	0.604	0.599	0.735	0.922	0.925	0.754	0.862	0.787	0.863	0.912	0.844	0.841	0.8	0.614	0.674	0.655	0.646	0.613
LOU-NH91	0.736	0.763	0.745	0.707	0.77	0.624	0.695	0.571	0.739	0.68	0.886	1.02	0.837	0.905	0.863	0.845	0.904	0.97	0.873	0.728
SK-MES-1	0.966	0.964	0.954	1.04	1	1.19	1.18	1.09	1.25	1.25	1.03	1.11	1.01	0.97	0.585	0.707	0.739	0.73	0.723	0.829
NCI-H2170	1.22	1.21	1.14	1.31	1.13	0.651	0.626	0.557	0.673	0.571	0.765	0.813	0.732	0.717	0.84	0.546	0.629	0.63	0.562	0.612
NCI-H460	0.855	0.905	0.922	0.893	0.729	1.07	1.3	1.24	1.14	1.23	–	0.702	0.705	0.724	0.68	0.41	0.403	0.421	0.39	0.32
SK-LU-1	0.94	0.944	0.965	1.06	0.924	0.82	0.789	1.44	0.974	0.586	0.734	0.86	0.856	0.836	0.823	0.517	0.535	0.531	0.435	0.485
EPLC-272H	0.772	0.905	0.967	0.899	0.914	1.08	1.28	1.1	1.07	0.984	0.494	0.676	0.557	0.402	0.479	0.755	0.912	0.96	0.745	0.909
A-427	0.898	0.903	0.843	1	1.01	1.01	0.714	0.873	1.02	0.974	0.889	0.849	0.906	0.888	0.867	0.757	0.711	0.771	0.819	0.76
